Read-outs that look alike come from different tables or passages of the source.
Legend:
9L/P450 cells [1] = test system: 9L/P450 cells
9L/P450 cells [2] = test system: 9L/P450 cells; remark: listed apart in the source
9L/P450/p35-9 cells [3] = test system: 9L/P450/p35-9 cells
Method: Cells were then cultured for up to 17 days following the initial drug treatment. […] Cells remaining on the plates at each indicated time point were stained with crystal violet. Data shown are mean+/−half the range for A595 values n=2 samples at each time point.
Growth Inhibition Assay: 9L/P450 and 9L/P450-derived cells lines were plated at 1.5×10^5 cells per well in 12 well dishes in 1.5 ml media unless indicated otherwise. […] Cells remaining on the plate at the indicated times were washed twice with cold PBS and then stained with crystal violet solution, as described previously (Schwartz and Waxman, Mol Pharmacol. 60:1268-1279. (2001)). The stain was eluted from the cells and the absorbance read at 595 nm to determine the relative protein content of each sample (Jounaidi et al., Cancer Res. 58:4391-4401 (1998)).

9L/LacZ bystander cells = test: Bystander cytotoxicity, colony formation assay; type: cell-based, rat
Method: The cytotoxicity conferred by 9L/P450 and 9L/P450/p35-9 cells on 9L/LacZ bystander cells was assayed using one of two protocols. […] Following this drug treatment cell survival was determined for each of the three cell lines (9L/P450, 9L/P450/p35-9 and 9L/LacZ) using a colony formation assay. In the experiment shown in FIGS. 6A and 6B (protocol 1) the 9L/LacZ bystander cells were plated on top of the 9L/P450 or 9L/P450/p35-9 cells, enabling the two cell populations to be in direct cell-cell contact. […]
Bystander Experiments. […] The cells were then grown in drug-free media for an additional 16 hr (i.e., 24 hr from the start of the second drug treatment), at which point the cells were trypsinized, collected, counted and replated at various densities in 6 well plates to allow for the growth of individual colonies, as follows: Drug-free control cells were replated in duplicate at 100, 150 and 250 cells/well. […] LacZ-positive colonies containing≧50 cells were counted. Cells were then re-stained with crystal violet and the total number of colonies was determined. The number of 9L/P450 or 9L/P450/p35-9 colonies on each plate was then calculated by subtracting number of the Lac Z-positive colonies from each sample. The colony efficiency (number of colonies/number of cells seeded) was then calculated for each treatment group. […]

[4] = human, in vivo; cited from earlier work
9L/P450 cells [5] = conditions: 1 × 8 hr 1 mM CPA
9L/P450/p35-9 cells [6] = test: Colony formation assay after CPA treatment; type: cell-based, rat; conditions: 1 × 8 hr 1 mM CPA
Text: Relative colony formation activities are shown in parenthesis.

[7] = test system: caspase 8 and caspase 9 in CPA-treated 9L/P450 cells; test: Caspase 8 and caspase 9 activity in extracts of CPA-treated cells; type: cell-based, rat; conditions: IAP expressed by retroviral transduction, cells treated with 1 mM CPA
Method: 9L/P450 cells were infected with retrovirus encoding the IAPs p35 or Survivin. […] Shown in FIG. 1B are the caspase 8 and caspase 9 activities of the individual cell lines (mean+/−half the range for n=2 separate experiments).
Caspase Activity Measurements: Caspase activities were assayed as described previously (Schwartz and Waxman, Mol Pharmacol. 60:1268-1279. (2001)). […] Floating and attached cells were collected, pooled, dissolved in lysis buffer (10 mM Hepes buffer (pH 7.4) containing 2 mM EDTA, 0.1% CHAPS detergent, 5 mM DTT, 350 ng/ml PMSF, 10 ng/ml pepstatin A, 10 ng/ml aprotinin, and 20 ng/ml leupeptin) and then subjected to three freeze-thaw cycles. Lysates were spun and the supernatant (cell extract) was assayed for caspase 3, 8 and 9 activities by incubation with caspase form-selective substrates: Ac-DEVD-AMC (Biomol; cat # P-411) for caspase 3 (Talanian et al., J Biol. Chem. 272:9677-9682 (1997); Thomberry et al., J Biol. Chem. 272:17907-17911 (1997)), LETD-AFC (BioRad; cat# 170-3186) for caspase 8 and Ac-LEHD-AFC (BioRad; cat# 170-3190) for caspase 9.

[8] = three 8 hr treatments with 1 mM CPA

Q: For `CCCCS(=N)(=O)CCC(N)C(=O)O` (stereo not shown) [BSO, buthionine sulfoximine], which “decrease in the cell's capacity to produce and release 4-OH-CPA into the culture media” value (9L/P450 cells [1]) is on record?
A: Its value is 86%.

Q: What about the “effect of BSO pretreatment on cell growth” value (9L/P450 cells [2]) of the same compound?
A: The value was “no effect on cell growth”.

Q: What about the cell survival (9L/P450 cells [2]; BSO pretreatment (50 μM for 24 hr), then 1 mM CPA for 72 hr) of the same compound?
A: Its cell survival is 13%.

Q: Which “time to death of cells” value (9L/P450/p35-9 cells [3]; 1 mM CPA continuously) does the source give for `O=P1(N(CCCl)CCCl)NCCCO1` (stereo not shown) [CPA, cyclophosphamide] here?
A: Its value is 8 days.

Q: And the cell killing (9L/P450/p35-9 cells [3]; single 8 hr CPA treatment)?
A: The cell killing was “not sufficient to kill”.

Q: What about the “day by which all cells died” value (9L/P450/p35-9 cells [3]; [8]) of the same compound?
A: The value was no more than 17 days.

Q: And the bystander cell killing (9L/LacZ bystander cells; co-cultured with 9L/P450/p35-9 cells across a permeable membrane, second 8 hr CPA treatment)?
A: The bystander cell killing was 70-80%.

Q: What about the bystander cell killing (9L/LacZ bystander cells; co-cultured with CPA-pretreated 9L/P450 cells across a permeable membrane, second CPA treatment) of the same compound?
A: Its bystander cell killing is “little or no bystander cell killing”.

Q: And the “time to death of cells” value (9L/P450 cells [2]; 1 mM CPA continuously)?
A: Its value is 3 to 4 days.

Q: And the “cellular response to CPA in the absence of p35” value (9L/P450 cells [2]; 1 mM CPA for 72 hr)?
A: Its value is “cytotoxic response”.

Q: And the cell survival (9L/P450 cells [2]; 1 mM CPA for 72 hr, without BSO)?
A: The cell survival was 62%.

Q: What about the cell killing (9L/P450 cells [2]; single 8 hr CPA treatment) of the same compound?
A: The cell killing was “not sufficient to kill”.

Q: And the “day by which all cells died” value (9L/P450 cells [2]; [8])?
A: The value was 6 to 9 days.

Q: And the half-life [4]?
A: The half-life was 8 h.

Q: And the “Relative colony formation activity (in parenthesis)” value (9L/P450 cells [5]; No Drug = 100)?
A: Its value is 1.1 ± 0.5.

Q: And the “Colonies per 10,000 cells” value (9L/P450 cells [5]; mean ± SD n=3)?
A: Its value is 77.

Q: What about the “Relative colony formation activity (in parenthesis)” value (9L/P450/p35-9 cells [6]; No Drug = 100) of the same compound?
A: The value was 2.9 ± 0.9.

Q: And the “Colonies per 10,000 cells” value (9L/P450/p35-9 cells [6]; mean ± SD n=3)?
A: Its value is 150 ± 49.

Q: Which “inhibition of caspase activity” value [7] does the source give for “hIAP2: human IAP (inhibitor of apoptosis), myc-tagged cDNA, expressed by retroviral transduction” here?
A: Its value is “less effective caspase inhibition”.

— patent US20060057109A1 (priority 2002, published 2006)
